Test systems include ACHN; SNB-75; CCRF-CEM; MCF7; SF-268; CAKI-1; T47D; Hs-578T; UACC-257; MDA-MB-231; M14; SN12C; SK-MEL-5; SK-OV-3; RXF 393; OVCAR-8; SR; Malme-3M; RPMI-8226.
Assay in all cases: inhibition of tumour cell growth, NCI panel, 48 h

The structures appear in SMILES notation.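 Assay format: 96-well plates, 48-hour exposure. Abbreviation: GI50, concentration required for 50% inhibition of growth.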 Activity calls are given as the source filed them. Rule as the data show it: active = GI50 up to about 1.1 µM and inactive = higher. Some results are limits rather than exact numbers.

As to `C[C@H](O)C1CC(Cn2nnc3c(N)ncnc32)C1(C)C` (some centres undefined), the GI50 in the assay on ACHN, in the assay on SNB-75, in the assay on CCRF-CEM, in the assay with MCF7, in the assay with SF-268 and in the assay with CAKI-1 was > 100 µM (inactive) in each case. In addition, the GI50 with T47D, in the assay with Hs-578T, in the assay on UACC-257, in the assay with MDA-MB-231, in the assay with M14 and with SN12C was > 100 µM (inactive) each time. For the same molecule, the GI50 in the assay on SK-MEL-5, in the assay with SK-OV-3 and with RXF 393 was > 100 µM (inactive) each time.
Consider `CC1(C)CC(=O)C2=C(C1)OC1=C(CC(C)(C)CC1=O)C2c1ccccc1Cl` (centres undefined), for which the GI50 in the assay on ACHN, in the assay on SNB-75, in the assay with CCRF-CEM, with SF-268, in the assay on CAKI-1 and in the assay on OVCAR-8 was > 100 µM (inactive) each time. For the same molecule, the GI50 is > 100 µM (inactive) with T47D; > 100 µM (inactive) in the assay with Hs-578T; > 100 µM (inactive) in the assay with SR; > 100 µM (inactive) in the assay on UACC-257; > 100 µM (inactive) with Malme-3M; 89.7 µM (inactive) in the assay with MDA-MB-231. Moreover, the GI50 in the assay with M14 is > 100 µM (inactive); with SN12C it was > 100 µM (inactive); with RPMI-8226, > 100 µM (inactive); in the assay on SK-MEL-5 it was 43.5 µM (inactive); with SK-OV-3, > 100 µM (inactive); in the assay on RXF 393, > 100 µM (inactive).
Take `COc1ccc(C2=NOC(N)(c3ccc(OC)cc3)C2)cc1` (centres undefined): the GI50 with ACHN, in the assay with SNB-75, in the assay with CCRF-CEM, with MCF7, in the assay with CAKI-1 and in the assay on OVCAR-8 was > 100 µM (inactive) in each case. Further, the GI50 in the assay with Hs-578T is 81.1 µM (inactive); with SR, > 100 µM (inactive); in the assay on UACC-257 it was > 100 µM (inactive); with Malme-3M, 66.5 µM (inactive); in the assay on MDA-MB-231, 81.5 µM (inactive); in the assay on M14, > 100 µM (inactive). For the same molecule, the GI50 with SN12C is > 100 µM (inactive); in the assay with RPMI-8226 it was > 100 µM (inactive); in the assay with SK-MEL-5, 56.9 µM (inactive); in the assay on SK-OV-3, > 100 µM (inactive).
For the molecule `COc1cc(C)cc2c1c(=O)c1ccccc1n2C`, the GI50 is 36 µM (inactive) in the assay on ACHN; 41.7 µM (inactive) in the assay on SNB-75; 24.4 µM (inactive) with CCRF-CEM; 16.4 µM (inactive) in the assay on MCF7; 49.7 µM (inactive) in the assay with SF-268; 54.8 µM (inactive) in the assay with CAKI-1. Also, the GI50 was 40.1 µM (inactive) with OVCAR-8; 48.3 µM (inactive) in the assay on Hs-578T; 22.1 µM (inactive) in the assay on SR; 40.2 µM (inactive) in the assay on UACC-257; 39.7 µM (inactive) in the assay on Malme-3M; 53.5 µM (inactive) in the assay on MDA-MB-231. Further, the GI50 with M14 was 34.7 µM (inactive); with SN12C it was 37.5 µM (inactive); in the assay with RPMI-8226, 19.7 µM (inactive); in the assay with SK-MEL-5, 25 µM (inactive); with SK-OV-3, 60 µM (inactive); in the assay with RXF 393 it was 28.3 µM (inactive).
`COc1cc(/C=C(\C#N)C(=O)c2ccccc2)ccc1O`: the GI50 with ACHN is > 100 µM (inactive); with CCRF-CEM it was 82.8 µM (inactive); in the assay with SF-268, > 100 µM (inactive); in the assay on CAKI-1 it was > 100 µM (inactive); in the assay on OVCAR-8, > 100 µM (inactive); in the assay on SR it was > 100 µM (inactive). Further, the GI50 with UACC-257, in the assay with Malme-3M, in the assay on M14, in the assay with SN12C, in the assay with RPMI-8226 and with SK-MEL-5 was > 100 µM (inactive) in each case. In addition, the GI50 in the assay on SK-OV-3 is > 100 µM (inactive).
Turning to `O=C1OC(c2ccc(Cl)c3ccccc23)c2ccccc21` (centres undefined), the GI50 in the assay with ACHN is > 100 µM (inactive); with SNB-75, 6.07 µM (inactive); with CCRF-CEM, 91.6 µM (inactive); with SF-268, > 100 µM (inactive); in the assay on CAKI-1, 75.5 µM (inactive); in the assay with OVCAR-8, > 100 µM (inactive). The GI50 with SR, with UACC-257, in the assay on Malme-3M, with M14, in the assay with SN12C and in the assay on RPMI-8226 was > 100 µM (inactive) in each case. The values for the GI50 with SK-MEL-5, in the assay on SK-OV-3 and with RXF 393 were > 100 µM (inactive), > 100 µM (inactive) and 26.1 µM (inactive), respectively.
As for `O=C(Nc1ccccc1)c1cc(S(=O)(=O)Nc2n[nH]c(=O)[nH]2)c(SSc2cc(Cl)c(C(=O)Nc3ccccc3)cc2S(=O)(=O)Nc2n[nH]c(=O)[nH]2)cc1Cl`, the GI50 in the assay with ACHN, in the assay with SNB-75, in the assay with CCRF-CEM, in the assay with MCF7, in the assay with SF-268 and with CAKI-1 was > 100 µM (inactive) each time. The GI50 in the assay with OVCAR-8, in the assay on Hs-578T, in the assay on SR, in the assay on UACC-257, with Malme-3M and with MDA-MB-231 was > 100 µM (inactive) each time. The GI50 with M14, with SN12C, in the assay on RPMI-8226, in the assay on SK-MEL-5 and in the assay on SK-OV-3 was > 100 µM (inactive) each time.
With `CC(C)(C)c1cc(COc2cc(COc3ccc(-c4c5c(nc6c4CCc4ccc(-c7c8ccccc8nc8ccccc78)cc4-6)-c4cc(-c6c7ccccc7nc7ccccc67)ccc4CC5)cc3)cc(OCc3cc(C(C)(C)C)cc(C(C)(C)C)c3)c2)cc(C(C)(C)C)c1`, the GI50 in the assay on ACHN, in the assay on SNB-75, with MCF7, in the assay with SF-268, with CAKI-1 and in the assay with T47D was > 100 µM (inactive) in each case. The GI50 was > 100 µM (inactive) in the assay on UACC-257; 89.3 µM (inactive) in the assay on Malme-3M; > 100 µM (inactive) in the assay on MDA-MB-231; > 100 µM (inactive) with M14; > 100 µM (inactive) in the assay on SN12C; > 100 µM (inactive) with RPMI-8226. Moreover, the GI50 with SK-MEL-5 and in the assay with SK-OV-3 was > 100 µM (inactive) throughout.
Turning to `C[C@H]1OC(=O)[C@@H]2N=NN(Cc3ccccc3)[C@H]12`, the GI50 in the assay with ACHN, in the assay on MCF7, with SF-268, in the assay on CAKI-1, in the assay with OVCAR-8 and in the assay on T47D was > 100 µM (inactive) throughout. For the same molecule, the GI50 in the assay with SR, in the assay on Malme-3M, in the assay on MDA-MB-231, in the assay on M14, in the assay with SN12C and in the assay on RPMI-8226 was > 100 µM (inactive) throughout. Further, the GI50 with SK-MEL-5, in the assay with SK-OV-3 and with RXF 393 was > 100 µM (inactive) throughout.
In the case of `CC1(C)[C@@H](Cn2cc(I)c(=O)[nH]c2=O)CC[C@@]1(C)CO`, the GI50 is > 100 µM (inactive) in the assay on ACHN; 40.3 µM (inactive) in the assay on SNB-75; > 100 µM (inactive) in the assay on CCRF-CEM; > 100 µM (inactive) with SF-268; > 100 µM (inactive) in the assay on CAKI-1; > 100 µM (inactive) in the assay on T47D. Moreover, the GI50 was > 100 µM (inactive) with Hs-578T; > 100 µM (inactive) in the assay on UACC-257; > 100 µM (inactive) in the assay on MDA-MB-231; > 100 µM (inactive) with M14; > 100 µM (inactive) with SN12C; 92.9 µM (inactive) with SK-MEL-5. For the same molecule, the GI50 with SK-OV-3 and with RXF 393 was > 100 µM (inactive) each time.
With `CCN(CC)/N=C\c1c2ccccc2cc2ccccc12`, the GI50 with ACHN is 96.8 µM (inactive); with SNB-75, 18.3 µM (inactive); in the assay with CCRF-CEM, 31.3 µM (inactive); in the assay on SF-268, 72.8 µM (inactive); with CAKI-1 it was 33 µM (inactive); in the assay on OVCAR-8, 61.8 µM (inactive). Besides, the GI50 was 42.7 µM (inactive) in the assay with T47D; 48 µM (inactive) in the assay with Hs-578T; 26.6 µM (inactive) in the assay with SR; 27.9 µM (inactive) in the assay with UACC-257; 49.8 µM (inactive) in the assay on Malme-3M; 24.9 µM (inactive) in the assay on MDA-MB-231. Also, the GI50 in the assay with M14 was 22 µM (inactive); with SN12C, 48.5 µM (inactive); in the assay with RPMI-8226 it was 30.5 µM (inactive); with SK-MEL-5 it was 21.8 µM (inactive); in the assay on SK-OV-3, > 100 µM (inactive); in the assay on RXF 393 it was 17.7 µM (inactive).
As for `O=C1c2c(O)cccc2Cc2cc(CO)cc(O)c21`, the GI50 in the assay on ACHN is 2.94 µM (inactive); in the assay with SNB-75, 1.05 µM (active); in the assay with CCRF-CEM it was 3.28 µM (inactive); with MCF7 it was 2.58 µM (inactive); in the assay with SF-268, 2.05 µM (inactive); with OVCAR-8, 2.74 µM (inactive). Also, the GI50 was 2.96 µM (inactive) with T47D; 2.82 µM (inactive) with SR; 2.14 µM (inactive) with UACC-257; 2.21 µM (inactive) in the assay on Malme-3M; 2.3 µM (inactive) in the assay with MDA-MB-231; 2.31 µM (inactive) with M14. In addition, the GI50 is 3.38 µM (inactive) with SN12C, 0.743 µM (active) in the assay with RPMI-8226, 1.69 µM (inactive) with SK-MEL-5 and 3.19 µM (inactive) in the assay with SK-OV-3.

For the origin of these results see ChEMBL document CHEMBL1201862, “PubChem BioAssay data set” (2004).
